Experimental data: PubChem BioAssay AID977613 (Broad Institute, 2014)
Active and inactive are the calls of the source. No rule for the calls is given here.

Test system: Broad 7084-01 inhibitor HTS, set 2
Test: single-concentration hits, screen 7084 set 2 (AID 977613);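 also: host cells are infected with parasite promastigotes that become internalized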

SMILES	active concentration
COc1ccc(-c2ccc([C@@H]3[C@H]4CN(C(=O)Cc5ccncc5)CCCCN4[C@H]3CO)cc2)cc1	> 10 µM (inactive)
COc1ccc2c3c([nH]c2c1)[C@H](CO)N(Cc1ccncc1)CC31CCN(CC2CCOCC2)CC1	> 10 µM (inactive)
COc1ccc2c3c([nH]c2c1)[C@@H](CO)N(C(=O)Nc1c(C)noc1C)CC31CN(CC2CCOCC2)C1	> 10 µM (inactive)
O=C(C[C@@H]1CC[C@H]2[C@@H](COC[C@H](O)CN2Cc2ccc(Cl)cc2)O1)NCc1ccccc1Cl	> 10 µM (inactive)
O=C(c1cccc(F)c1)N1CCCCN2[C@H](CO)[C@H](c3ccc(C#CC4(O)CCCC4)cc3)[C@H]2C1	> 10 µM (inactive)
CN1c2ccc(Br)cc2[C@H]2[C@H](CCN2C(=O)Cc2ccccc2)[C@H]1CO	> 10 µM (inactive)
CC=Cc1ccc2n(c1=O)C[C@H]1[C@H](CO)[C@@H](C(=O)NCC)[C@@H]2N1Cc1cccc(Cl)c1 (mixture of isomers)	> 10 µM (inactive)
COc1ccc2c3c([nH]c2c1)[C@@H](CO)N(C(=O)C1CCC1)CC31CN(C(=O)c2ccccn2)C1	> 10 µM (inactive)
CCN1CC(=O)N2[C@@H](CO)[C@@H](c3ccc(Br)cc3)[C@@H]2C1	> 10 µM (inactive)
CCC(=O)N1CC2(C1)CN(C(=O)c1cnccn1)[C@H](CO)c1c2c2ccc(OC)cc2n1C	> 10 µM (inactive)
O=C(C[C@H]1CC[C@H]2[C@@H](COC[C@H](O)CN2C(=O)Cc2ccccc2)O1)NC1CCCC1	> 10 µM (inactive)
COc1cccc(NC(=O)Nc2ccc3c(c2)C(=O)N(C)[C@H]2CC[C@@H](CC(=O)NCCc4ccccc4)O[C@H]2CO3)c1	> 10 µM (inactive)
O=C(C[C@H]1CC[C@@H]2[C@H](COC[C@@H](O)CN2CC2CC2)O1)NCc1ccc(Cl)cc1	> 10 µM (inactive)
CC(C)NC(=O)N1[C@H](CO)[C@@H](c2ccccc2-c2ccc(F)cc2)[C@@H]1C#N	> 10 µM (inactive)
O=C(C[C@H]1CC[C@@H]2[C@H](COC[C@H](O)CN2C(=O)Nc2ccc(Cl)c(Cl)c2)O1)NCc1ccc(Cl)cc1	> 10 µM (inactive)
CC(=O)N1[C@@H](CO)[C@@H](c2ccc(C3=CCCC3)cc2)C12CN(C(=O)NC(C)C)C2	> 10 µM (inactive)
O=C(NC1Cc2ccccc2C1)[C@H]1N[C@H]2c3cccc(=O)n3C[C@H]2[C@@H]1CO	> 10 µM (inactive)
CS(=O)(=O)N1[C@@H]2c3ccc(C4=CCCC4)c(=O)n3C[C@@H]2[C@@H](CO)[C@@H]1C(=O)NCCc1ccncc1	> 10 µM (inactive)
COc1ccccc1CN1[C@@H]2c3ccc(C4=CCCC4)c(=O)n3C[C@H]1[C@H](CO)[C@H]2C(=O)N(C)C	> 10 µM (inactive)
COc1ccc2c3c(n(C)c2c1)[C@@H](CO)N(C(=O)Nc1cccc(F)c1)CC31CN(Cc2nccs2)C1	> 10 µM (inactive)
OC[C@H]1[C@H]2c3ccccc3NC[C@H]2N1Cc1cccnc1	> 10 µM (inactive)
O=C(C[C@H]1CC[C@H]2[C@@H](COC[C@H](O)CN2S(=O)(=O)c2cccc(Cl)c2)O1)Nc1ccc(-c2ccccc2)cc1	> 10 µM (inactive)
CCC(=O)N1[C@H](CO)[C@H]2c3ccccc3N(S(=O)(=O)c3ccccc3C)C[C@H]21	> 10 µM (inactive)
O=C(c1ccccc1F)N1CC(=O)N2[C@H](CO)[C@@H](c3ccc(C#Cc4ccccc4)cc3)[C@@H]2C1	> 10 µM (inactive)

SMILES	active concentration
N#C[C@@H]1[C@H](c2ccccc2C2=CCCCC2)[C@H](CO)N1C(=O)C1CCOCC1	> 10 µM (inactive)
O=C(O)[C@H]1[C@H](CO)[C@H]2Cn3c(ccc(/C=C/c4ccccc4)c3=O)[C@H]2N1Cc1ccc2c(c1)OCO2	> 10 µM (inactive)
CS(=O)(=O)N1C[C@@H](O)COC[C@@H]2O[C@H](CC(=O)NCc3ccc(-c4ccccc4)cc3)CC[C@H]21	> 10 µM (inactive)
CC(C)NC(=O)N1[C@H](CO)[C@H](c2ccccc2-c2ccc(F)cc2)[C@@H]1C#N	> 10 µM (inactive)
O=C(C[C@H]1CC[C@H]2[C@@H](COC[C@@H](O)CN2S(=O)(=O)c2cccc(F)c2)O1)Nc1ccc(-c2ccccc2)cc1	> 10 µM (inactive)
O=C(c1cccnc1)N1C[C@H]2[C@@H](c3ccccc31)[C@@H](CO)N2C(=O)CN1CCOCC1	> 10 µM (inactive)
O=C(C1CCOCC1)N1CC(=O)N2[C@@H](CO)[C@@H](c3ccc(-c4cccnc4)cc3)[C@@H]2C1	> 10 µM (inactive)
C/C=C/c1ccccc1[C@@H]1[C@@H](C#N)N(C(C)=O)[C@@H]1CO	> 10 µM (inactive)
O=S(=O)(c1ccc(F)cc1)N1CCCCN2[C@@H](CO)[C@@H](c3ccc(-c4cncnc4)cc3)[C@@H]2C1	> 10 µM (inactive)
O=C(C[C@H]1CC[C@@H]2[C@H](COC[C@H](O)CN2Cc2ccc(Cl)cc2)O1)NCc1ccccc1Cl	> 10 µM (inactive)
COCC(=O)N1CC2(C1)CN(Cc1nccs1)[C@@H](CO)c1c2c2ccc(OC)cc2n1C	> 10 µM (inactive)
CC(=O)N1CC[C@@H]2[C@H]1c1cc(-c3ccc(F)cc3)ccc1N[C@@H]2CO	> 10 µM (inactive)
CN(C)C(=O)C[C@@H]1CC[C@@H]2[C@H](COC[C@H](O)CN2CC2CC2)O1	> 10 µM (inactive)
O=C(NC1CCCCC1)N1CC2(C1)[C@H](c1ccccc1)[C@H](CO)N2CC1CCCC1	> 10 µM (inactive)
COc1ccc2c3c(n(C)c2c1)[C@@H](CO)N(C(=O)Cc1ccccc1)CC31CN(C)C1	> 10 µM (inactive)
O=C(C[C@@H]1CC[C@H]2[C@@H](COC[C@@H](O)CN2Cc2cccc(C(F)(F)F)c2)O1)NCc1ccccc1	> 10 µM (inactive)
CN1c2ccc(-c3cccc(F)c3)cc2[C@@H]2[C@@H](CCN2C(=O)c2ccccc2F)[C@H]1CO	> 10 µM (inactive)
O=C(C[C@@H]1CC[C@@H]2[C@H](COC[C@H](O)CN2Cc2ccccc2)O1)NCCc1ccccc1	> 10 µM (inactive)
O=C(CC1CC1)N1CC(=O)N2[C@H](C1)[C@@H](c1ccc(/C=C/c3ccccc3)cc1)[C@@H]2CO	> 10 µM (inactive)
O=C(c1cnccn1)N1CC[C@@H]2[C@H]1c1cc(-c3ccccc3F)ccc1N[C@@H]2CO	> 10 µM (inactive)
CCCC#Cc1ccc([C@H]2[C@@H](CO)N3C(=O)CN(C(=O)CN4CCOCC4)C[C@@H]23)cc1	> 10 µM (inactive)
CN(C)C(=O)C[C@H]1CC[C@H]2[C@@H](COC[C@@H](O)CN2C(=O)C2CC2)O1	> 10 µM (inactive)
CN(C)C(=O)[C@@H]1[C@@H](CO)[C@@H]2Cn3c(cccc3=O)[C@@H]2N1C(=O)C1CCC1	> 10 µM (inactive)
O=C(C[C@H]1CC[C@@H]2[C@H](COC[C@@H](O)CN2S(=O)(=O)c2ccc(F)cc2)O1)NCC1CC1	> 10 µM (inactive)

SMILES	active concentration
O=C(C[C@H]1CC[C@H]2[C@@H](COC[C@@H](O)CN2C(=O)Nc2ccc(C(F)(F)F)cc2)O1)NCC1CC1	> 10 µM (inactive)
COc1ccc2c3c([nH]c2c1)[C@@H](CO)N(Cc1ccccc1OC)CC31CN(C(C)=O)C1	> 10 µM (inactive)
O=C(CC1CC1)N1[C@H](CO)[C@@H]2c3ccccc3N(S(=O)(=O)c3ccccc3F)C[C@@H]21	> 10 µM (inactive)
CN(C)CC(=O)N1[C@@H](CO)[C@@H](c2ccccc2)C12CN(CCC(F)(F)F)C2	> 10 µM (inactive)
CC=Cc1ccc2n(c1=O)C[C@@H]1[C@@H](CO)[C@H](C(=O)N[C@@H](C)c3ccccc3)N(C(=O)c3cnccn3)[C@H]21 (mixture of isomers)	> 10 µM (inactive)
C/C=C/c1ccc2c(c1)[C@@H]1[C@@H](CCN1C(=O)Cc1cccnc1)[C@@H](CO)N2C	> 10 µM (inactive)
COc1ccc(C#Cc2ccc3c(c2)[C@H]2[C@H](CCN2C(=O)CN2CCOCC2)[C@H](CO)N3C)cc1	> 10 µM (inactive)
C/C=C/c1ccc([C@H]2[C@@H](CO)N(CC3CCCC3)C23CN(C(=O)CC)C3)cc1	> 10 µM (inactive)
O=C(C[C@@H]1CC[C@@H]2[C@H](COC[C@@H](O)CN2S(=O)(=O)c2cccc(Cl)c2)O1)Nc1ccc(-c2ccccc2)cc1	> 10 µM (inactive)
COc1ccc(NC(=O)N2CC(=O)N3[C@@H](CO)[C@H](c4ccc(Br)cc4)[C@@H]3C2)cc1	> 10 µM (inactive)
C[C@@H](O)C#Cc1ccc([C@@H]2[C@H](CO)N3CCCCN(C(=O)c4ccc5c(c4)OCO5)C[C@@H]23)cc1	> 10 µM (inactive)
C/C=C/c1ccc([C@@H]2[C@H](CO)N(S(=O)(=O)CC)C23CN(C(C)=O)C3)cc1	> 10 µM (inactive)
CN(C)C(=O)c1ccc(-c2ccc3c(c2)[C@@H]2[C@@H](CCN2Cc2ccc4c(c2)OCO4)[C@@H](CO)N3)cc1	> 10 µM (inactive)
COc1ccc2c3c(n(C)c2c1)[C@@H](CO)N(C(=O)C1CC1)CC31CN(Cc2ccccc2OC)C1	> 10 µM (inactive)
O=C(c1ccncc1)N1CC2(C1)[C@@H](c1ccccc1)[C@@H](CO)N2CC1CCOCC1	> 10 µM (inactive)
O=C(Cc1ccccn1)N1[C@H](CO)[C@H]2c3ccccc3NC[C@H]21	> 10 µM (inactive)
O=C(C[C@@H]1CC[C@@H]2[C@H](COC[C@@H](O)CN2Cc2nccs2)O1)NCc1ccccc1	> 10 µM (inactive)
O=C(C[C@H]1CC[C@H]2[C@@H](COC[C@H](O)CN2C(=O)c2ccncc2)O1)NCc1ccc(-c2ccccc2)cc1	> 10 µM (inactive)
O=C(CC(F)(F)F)N1C[C@@H]2[C@H](c3ccccc31)[C@H](CO)N2CC1CCOCC1	> 10 µM (inactive)
O=C(C[C@@H]1CC[C@H]2[C@@H](COC[C@H](O)CN2S(=O)(=O)c2ccccc2)O1)Nc1ccccc1	> 10 µM (inactive)
CC(C)NC(=O)N1CC2(C1)[C@H](c1ccccc1)[C@@H](CO)N2C(=O)C1CCCC1	> 10 µM (inactive)
Cc1ccccc1-c1ccc([C@@H]2[C@@H](CO)N3C(=O)CN(S(C)(=O)=O)C[C@H]23)cc1	> 10 µM (inactive)
